From patent EP4361137A1, “PRUNE1 INHIBITORS AND THERAPEUTIC USE THEREOF” (CEINGE Biotecnologie Avanzate Franco Salvatore s.c. a r.l., priority 2022, dated 2024)

Legend:
human PRUNE1 = test: qPCR of PRUNE1 mRNA in MATH1-Prune1/TP53-/- cells; assay type: cell-based; details: 10 µM, 24 hours, relative to vehicle
Procedure: (§1) RNA samples were extracted using TRIzol RNA Isolation Reagent (15596026, Invitrogen), according to the manufacturer instructions. Reverse transcription was performed with 5× All-In-One RT MasterMix (g592; ABM), according to the manufacturer instructions. The reverse transcription products (cDNA) were amplified by qRT-PCR using an RT-PCR system (7900; Applied Biosystems, Foster City, CA, USA). The cDNA preparation was through the cycling method, by incubating the complete reaction mix as follows: cDNA reactions: (37 °C for 10 min and 60 °C for 15 min); Heat-inactivation: 95 °C for 3 min; Hold stage: 4 °C. The targets were detected with the SYBR green approach, using BrightGreen BlasTaq 2× PCR MasterMix (G895; ABM). Human ACTB was used as the housekeeping gene to normalize the quantification cycle (Cq) values of the other genes. These runs were performed on a PCR machine (Quantstudio5, Lifetechnologies) with the following thermal protocol: Hold stage: 50 °C for 2 min; Denaturation Step: 95 °C for 10 min; Denaturation and annealing (×45 cycles): 95 °C for 15 s and 60 °C for 60 s; Melt curve stage: 95 °C for 15 s, 60 °C for 1 min, and 95 °C for 15 s. Relative expression of the target genes was determined using the 2^-ΔΔCq method, as the fold increase compared with the controls. The data are presented as means ±SD of the 2^-ΔΔCq values (normalized to human ACTB) of three replicates.

murine PRUNE1 = test: qPCR of PRUNE1 mRNA in MATH1-Prune1/TP53-/- cells; assay type: cell-based; details: 10 µM, 24 hours, relative to vehicle
Procedure: as §1

CCL2 = test: ELISA of CCL2 in sera of implanted mice; assay type: in vivo, FVB WT mice; details: 6 mg/kg/day intraperitoneally for seven days; n.5 per group
Procedure: ELISA assay ([…]) was performed by following the manufacturer instruction, to measure the levels of CCL2 cytokine in the sera from immunocompetent syngeneic mice orthotopically implanted with MATH1-Prune1/ TP53-/- cells and treated intraperitoneally for seven days with LEO-AA7.5(S)T (n.5) at 6 mg/kg/day, or with water (n.5) as the vehicle control group.

[1] = system: inflammatory cytokines targeted by IMIDs drugs; test: qPCR of inflammatory cytokines in MATH1-Prune1/TP53-/- cells; assay type: cell-based, murine; details: 10 µM, 24 hours
Procedure: as §1

D425-Med cells = test: In vivo combinatorial treatment with Vincristine, orthotopic medulloblastoma model; set-up: species or system nude mice
Procedure: We then measured the combinatorial treatment with (S)-(1-(4-((4-methoxybenzyl)amino)-1,3,5-triazin-2-yl)piperidin-3-yl)methanol HCl salt compound and Vincristine in vivo. To this end, D425-Med cells (1 ×10^5 cells) were implanted into the fourth ventricle of nude mice (n=18). After 7 days from tumour implantation (i.e., once the tumours were established) the mice (grouped according to their bioluminescence values) were injected intraperitoneally with 0.3 mg/kg/day Vincristine alone or in combination with 6 mg/kg/day (S)-(1-(4-((4-methoxybenzyl)amino)-1,3,5-triazin-2-yl)piperidin-3-yl)methanol HCl salt compound for 18 days (Figures 9E).

Prune1 = test: Immunoblotting of Prune1 in MMTV-Prune1/Wnt1 cells; assay type: cell-based, human and murine; details: dose of 10 mM
Procedure: D425.MED and MMTV-Prune1/Wnt1 cells were plated and treated with increasing concentrations of LEO-AA7.5(S)T for 24 hours. Water-treated cells were used as negative control for the experiments.
Cells for immunoblotting analysis were washed in cold PBS and lysed in cell lysis buffer [20 mM sodium phosphate (pH 7.4), 150 mM NaCl, 10% (v/v) glycerol, 1% (w/v) sodium deoxycholate, 1% (v/v) Triton X-100] supplemented with protease inhibitors (Roche). The resulting cell lysates were cleared by centrifugation at 16,200g for 10 min at room temperature, and the supernatants were re- moved and assayed for protein concentrations with the Protein Assay Dye Reagent (Bio-Rad). The cell lysates (30 µg) were resolved by SDS-polyacrylamide gel electrophoresis (SDS-PAGE) gels of different percentages, which depended on the molecular weights of the proteins of interest. The proteins were then electrophoretically transferred to polyvinylidene difluoride (PVDF) membranes (Millipore). After 1 hour in blocking solution with 5% (w/v) dry milk fat in PBS or 5% (w/v) BSA (Sigma-Aldrich) in tris-buffered saline [both of which contained 0.02% (v/v) Tween 20] […] The peak areas of the bands were measured on the densitometry plots, and the relative proportions (percentages) were calculated. […]

## COc1ccc(CNc2ncnc(N3CCC[C@H](CO)C3)n2)cc1.Cl [LEO-AA7.5(S)T, (S)-(1-(4-((4-methoxybenzyl)amino)-1,3,5-triazin-2-yl)piperidin-3-yl)methanol HCl salt]
Human PRUNE1
  human endogenous Prune1 mRNA: 0.15 fold
Murine PRUNE1
  murine endogenous Prune1 mRNA: 0.4 fold
CCL2
  sera circulating CCL2: decreased levels
[1]
  levels of inflammatory cytokines targeted by IMIDs drugs (qPCR): decreased levels
D425-Med cells; 6 mg/kg/day plus 0.3 mg/kg/day Vincristine intraperitoneally for 18 days
  intracranial tumor growth, combinatorial treatment with Vincristine: significantly decreased
D425-Med cells; combinatorial treatment with Vincristine
  angiogenesis (IVISense Integrin Receptor 680 Fluorescent Probe): decreased levels of angiogenesis
Prune1
  degradation of human and murine Prune protein: enhance the degradation
